{"source": "patent US20230364111A1", "about": "(priority 2020, published 2023)", "key": {"[1]": {"system": "TGFβ signaling", "assay_type": "cell-based", "details": "10 μM; NIH3T3 cells stimulated with 20 ng/mL TGFβ"}, "[2]": {"system": "SARS-CoV-2 TY8-612 (South Africa strain)", "assay": "SARS-CoV-2 TY8-612 strain infection in VeroE6/TMPRSS2 cells", "assay_type": "cell-based", "details": "viral RNA 24 h post-inoculation", "method": "(§1) FIGS. 12A-12C depict dose-response curves for Oxy232. (FIG. 12A) Secreted viral RNA in the VeroE6 culture supernatant 24 h post-inoculation was quantified by real-time RT-PCR. Cell viability of Oxy232 treated cells evaluated with an MTT assay. (FIG. 12B) Secreted viral RNA of 3 SARS-CoV-2 strains in the VeroE6 culture supernatant 24 h post-inoculation was quantified by real-time RT-PCR. (FIG. 12C) Calu-3 (ATCC) cells were pretreated with Oxy232 for 2 hours prior to continuous infection with SARS-CoV-2 (isolate USA WA1/2020) at MOI=0.5. 48 h post-infection, cells were fixed, immune-strained, and imaged by automated microscopy for infection (dsRNA+ cells/total cell number) and cell number.\n(§2) According to a previously published report (Ohashi et al., Identification of Anti-Severe Acute Respiratory Syndrome-Related Coronavirus 2 (SARS-CoV-2) Oxysterol Derivatives In Vitro. Int J Mol Sci. 2021; 22(6):3163. PMCID: PMC8003796) inventors have tested a collection of naturally occurring and semisynthetic oxysterol derivatives in a SARS-CoV-2 cell culture infection assay in VeroE6/TMPRSS2 cells. […] See, Ohashi et al., Int J Mol Sci. 2021; 22(6):3163 and Dittmar et al. Drug repurposing screens reveal cell-type-specific entry pathways and FDA-approved drugs active against SARS-Cov-2. Cell Rep. […] PMCID: PMC7985926. […]"}, "[3]": {"system": "SARS-CoV-2 TY7-501 (Brazil strain)", "assay": "SARS-CoV-2 TY7-501 strain infection in VeroE6/TMPRSS2 cells", "assay_type": "cell-based", "details": "viral RNA 24 h post-inoculation", "method": "as §1, §2"}, "[4]": {"system": "SARS-CoV-2 (isolate USA WA1/2020)", "assay": "SARS-CoV-2 infection of Calu-3 cells (dsRNA+ cells, automated microscopy)", "assay_type": "cell-based", "method": "as §1\nAccording to a previously published report (Ohashi et al., Identification of Anti-Severe Acute Respiratory Syndrome-Related Coronavirus 2 (SARS-CoV-2) Oxysterol Derivatives In Vitro. Int J Mol Sci. 2021; 22(6):3163. PMCID: PMC8003796) inventors have tested a collection of naturally occurring and semisynthetic oxysterol derivatives in a SARS-CoV-2 cell culture infection assay in VeroE6/TMPRSS2 cells. […] See, Ohashi et al., Int J Mol Sci. 2021; 22(6):3163 and Dittmar et al. Drug repurposing screens reveal cell-type-specific entry pathways and FDA-approved drugs active against SARS-Cov-2. Cell Rep. […] PMCID: PMC7985926. […] Without wishing to be bound by a theory, biological activities of oxysterols, including measures of cell viability, can heavily depend on in vitro assay conditions, such as the fetal bovine serum concentration or the duration of pretreatment with the compounds, among other factors, that may not translate to the in vivo safety of the compounds."}, "[5]": {"system": "VeroE6/TMPRSS2 cells", "details": "MTT assay; 24 h; VeroE6/TMPRSS2 cells"}, "[6]": {"system": "Calu-3 cells", "details": "at higher concentrations; automated microscopy"}, "[7]": {"system": "double-membrane vesicles (DMVs) in SARS-CoV-2-infected cells", "assay": "Electron microscopy of double-membrane vesicle (DMV) formation", "assay_type": "cell-based", "details": "10 μM Oxy210, Oxy232 (10 μM)"}, "[8]": {"system": "SARS-CoV-2 Wk-521 strain", "assay": "SARS-CoV-2 infection assay, viral RNA in culture supernatant (VeroE6/TMPRSS2 cells)", "assay_type": "cell-based"}, "[9]": {"assay": "in vitro", "details": "African green monkey"}, "[10]": {"assay": "in vitro", "details": "human"}, "[11]": {"system": "Hedgehog (Hh) signaling", "assay_type": "cell-based", "details": "10 μM; NIH3T3 cells with CAPAN-1 conditioned medium containing Shh"}, "[12]": {"details": "for Mean Oxy232 Levels in Lung Tissue (ng/g) / Mean Oxy232 Levels in Lung Tissue (μM): oral 200 mg/kg"}}, "note": "“Also recorded” adds a separate entry of the source. Like-named read-outs stand apart in the source and are kept apart here.", "data": [{"smiles": "CC[C@@](O)(CCc1cccnc1)[C@H]1CC[C@H]2[C@@H]3CC[C@H]4C[C@@H](O)CC[C@]4(C)[C@H]3CC[C@]12C", "note": "[Oxy232, (3S,5S,8R,9S,10S,13S,14S,17S)-17-((R)-3-hydroxy-1-(pyridin-3-yl)pentan-3-yl)-10,13-dimethylhexadecahydro-1H-cyclopenta[a]phenanthren-3-ol]", "values": [{"measurement": "TGFβ inhibitory properties (CTGF mRNA)", "setting": "[1]", "value": "devoid of significant TGFβ pathway inhibitory properties"}, {"measurement": "activity against the TY8-612 strain", "setting": "[2]", "value": "undiminished activity"}, {"measurement": "activity against the TY7-501 strain", "setting": "[3]", "value": "undiminished activity"}, {"measurement": "IC50", "setting": "[4]; Severe acute respiratory syndrome coronavirus 2, Calu-3, read-out: IC50 Calu-3 cells (ng/ml)", "value": 3050, "unit": "ng/mL"}, {"measurement": "IC90", "setting": "[4]; Severe acute respiratory syndrome coronavirus 2, Calu-3, read-out: IC90 Calu-3 cells (ng/ml)", "value": 5920, "unit": "ng/mL"}, {"measurement": "IC50", "setting": "[4]; Severe acute respiratory syndrome coronavirus 2, Calu-3, Table 6, read-out: IC50 Calu-3 cells", "value": 6.9, "unit": "µM"}, {"measurement": "IC90", "setting": "[4]; Severe acute respiratory syndrome coronavirus 2, Calu-3, Table 6, read-out: IC90 Calu-3 cells", "value": 13.5, "unit": "µM"}, {"measurement": "IC50", "setting": "[4]; Severe acute respiratory syndrome coronavirus 2, SARS-CoV-2 USA WA1/2020, MOI=0.5, 48 h post-infection, Calu-3, read-out: IC50 (Calu-3)", "value": 6.9, "unit": "µM"}, {"measurement": "IC90", "setting": "[4]; Severe acute respiratory syndrome coronavirus 2, SARS-CoV-2 USA WA1/2020, MOI=0.5, 48 h post-infection, Calu-3, read-out: IC90 (Calu-3)", "value": 13.5, "unit": "µM"}, {"measurement": "antiviral activity in Calu-3 human lung epithelial cells", "setting": "[4]; USA WA1/2020 isolate, at NIAID", "value": "confirmed the antiviral activity"}, {"measurement": "CC50", "setting": "[5]", "value": "> 15", "unit": "µM"}, {"measurement": "cell viability in Calu-3 cells", "setting": "[6]", "value": "do affect cell viability"}, {"measurement": "DMV formation in SARS-CoV-2-infected cells", "setting": "[7]", "value": "inhibit DMV formation"}, {"measurement": "viral RNA in the culture supernatant", "setting": "[8]; 24 h post-inoculation, natural oxysterols up to 30 μM, semi-synthetic up to 15 μM", "value": "reduced viral RNA level in a dose-dependent manner"}, {"measurement": "IC50", "setting": "[8]; Severe acute respiratory syndrome coronavirus 2, Vero C1008, read-out: IC50 VeroE6 cells (ng/mL)", "value": 2370, "unit": "ng/mL"}, {"measurement": "IC90", "setting": "[8]; Severe acute respiratory syndrome coronavirus 2, Vero C1008, read-out: IC90 VeroE6 cells (ng/mL), Table 6, same value in mass units", "value": 3250, "unit": "ng/mL"}, {"measurement": "IC50", "setting": "[8]; Severe acute respiratory syndrome coronavirus 2, Vero C1008, SARS-CoV-2, VeroE6, read-out: IC50 (VeroE6)", "value": 5.4, "unit": "µM"}, {"measurement": "IC90", "setting": "[8]; Severe acute respiratory syndrome coronavirus 2, Vero C1008, SARS-CoV-2, VeroE6, read-out: IC90 (VeroE6)", "value": 7.8, "unit": "µM"}, {"measurement": "IC50", "setting": "[8]; Severe acute respiratory syndrome coronavirus 2, Vero C1008, Table 6, read-out: IC50 VeroE6 cells", "value": 5.4, "unit": "µM"}, {"measurement": "IC90", "setting": "[8]; Severe acute respiratory syndrome coronavirus 2, Vero C1008, Table 6, read-out: IC90 VeroE6 cells", "value": 7.8, "unit": "µM"}, {"measurement": "IC90", "setting": "[8]; Severe acute respiratory syndrome coronavirus 2, VeroE6/TMPRSS2, 24 h, SARS-CoV-2 viral RNA in culture supernatant, 24 h post-inoculation, VeroE6/TMPRSS2 cells, read-out: IC90", "value": 7.8, "unit": "µM"}, {"measurement": "IC50", "setting": "[8]; Severe acute respiratory syndrome coronavirus 2, SARS-CoV-2 viral RNA in culture supernatant, 24 h post-inoculation, VeroE6/TMPRSS2 cells, read-out: IC50", "value": 5.4, "unit": "µM"}, {"measurement": "IC90 VeroE6 cells", "setting": "[8]; Table 6, same value in mass units", "value": 3.429, "unit": "µg/mL"}, {"measurement": "reduction of viral RNA production at the maximum", "setting": "[8]; at 15 μM", "value": 99.9, "unit": "%"}, {"measurement": "anti-SARS-CoV-2 activity", "setting": "[8]; cell-based assay, VeroE6/TMPRSS2", "value": "superior anti-SARS-CoV-2 activity; also recorded: anti-SARS-CoV-2 activity comparable to Oxy210; also recorded: significant anti SARS-CoV-2 activity"}, {"measurement": "viral RNA levels in the culture supernatant", "setting": "[8]; oxysterol derivatives at 10 or 30 uM, 24 h post-inoculation, VeroE6/TMPRSS2", "value": "strongly reduced viral RNA levels"}, {"measurement": "SARS-CoV-2 replication", "setting": "[8]; statement in words", "value": "drastically reduced SARS-CoV-2 replication"}, {"measurement": "viral inhibition", "setting": "[8]; tested in multiple studies, VeroE6/TMPRSS2", "value": "greater than 99%"}, {"measurement": "CC50", "setting": "[9]", "value": "> 15", "unit": "µM"}, {"measurement": "CC50", "setting": "[10]", "value": 29.4, "unit": "µM"}, {"measurement": "inhibitory activity toward Hh signaling (Gli1 mRNA)", "setting": "[11]", "value": "retains inhibitory activity toward Hh signaling"}, {"measurement": "Mean Oxy232 Levels in Lung Tissue (ng/g)", "setting": "[12]; mice, time 0 h", "value": 0, "unit": "ng/g"}, {"measurement": "Mean Oxy232 Levels in Lung Tissue (μM)", "setting": "[12]; mice, time 0 h", "value": 0, "unit": "µM"}, {"measurement": "Mean Oxy232 Levels in Lung Tissue (ng/g)", "setting": "[12]; mice, time 0.25 h", "value": 1500, "unit": "ng/g"}, {"measurement": "Mean Oxy232 Levels in Lung Tissue (μM)", "setting": "[12]; mice, time 0.25 h", "value": 3.41, "unit": "µM"}, {"measurement": "Mean Oxy232 Levels in Lung Tissue (ng/g)", "setting": "[12]; mice, time 0.5 h", "value": 8055, "unit": "ng/g"}, {"measurement": "Mean Oxy232 Levels in Lung Tissue (μM)", "setting": "[12]; mice, time 0.5 h", "value": 18.32, "unit": "µM"}, {"measurement": "Mean Oxy232 Levels in Lung Tissue (ng/g)", "setting": "[12]; mice, time 1 h", "value": 9427, "unit": "ng/g"}, {"measurement": "Mean Oxy232 Levels in Lung Tissue (μM)", "setting": "[12]; mice, time 1 h", "value": 21.44, "unit": "µM"}, {"measurement": "Mean Oxy232 Levels in Lung Tissue (ng/g)", "setting": "[12]; mice, time 2 h", "value": 7764, "unit": "ng/g"}, {"measurement": "Mean Oxy232 Levels in Lung Tissue (μM)", "setting": "[12]; mice, time 2 h", "value": 17.66, "unit": "µM"}, {"measurement": "Mean Oxy232 Levels in Lung Tissue (ng/g)", "setting": "[12]; mice, time 4 h", "value": 2916, "unit": "ng/g"}, {"measurement": "Mean Oxy232 Levels in Lung Tissue (μM)", "setting": "[12]; mice, time 4 h", "value": 6.63, "unit": "µM"}, {"measurement": "Mean Oxy232 Levels in Lung Tissue (ng/g)", "setting": "[12]; mice, time 8 h", "value": 673, "unit": "ng/g"}, {"measurement": "Mean Oxy232 Levels in Lung Tissue (μM)", "setting": "[12]; mice, time 8 h", "value": 1.53, "unit": "µM"}, {"measurement": "Mean Oxy232 Levels in Lung Tissue (ng/g)", "setting": "[12]; mice, time 24 h", "value": 122, "unit": "ng/g"}, {"measurement": "Mean Oxy232 Levels in Lung Tissue (μM)", "setting": "[12]; mice, time 24 h", "value": 0.28, "unit": "µM"}, {"measurement": "tolerability of oral dosing", "setting": "[12]; oral dosing in mice", "value": "well tolerated"}, {"measurement": "concentrations in lung tissue homogenate compared to plasma", "setting": "[12]; single dose 200 mg/kg, mice", "value": "generally higher than in plasma"}, {"measurement": "time lung homogenate concentration above Calu-3 IC50 levels", "setting": "[12]; single dose 200 mg/kg, mice", "value": "more than 3.5 h"}, {"measurement": "time lung homogenate concentration above VeroE6 IC50 levels", "setting": "[12]; single dose 200 mg/kg, mice", "value": 5, "unit": "h"}, {"measurement": "time plasma concentration above IC50 levels for antiviral activity (VeroE6/TMPRSS2)", "setting": "[12]; single dose 200 mg/kg, mice", "value": "more than 3 hours"}]}]}
